# Test results: US20110130286A1, “Piperazine Compounds with Herbicidal Effect” (BASF SE, priority 2008, published 2011)
# What was measured:
# ALOMY [1] = assay: greenhouse test, pre-emergence treatment; format: in vivo, Alopecurus agrestis; conditions: for herbicidal activity against ALOMY: application rate 0.125 kg/ha, comparative test
# Text: (§1) The culture containers used were plastic flowerpots containing loamy sand with approximately 3.0% of humus as the substrate. The seeds of the test plants were sown separately for each species.
# (§2) For the pre-emergence treatment, the active compounds, which had been suspended or emulsified in water, were applied directly after sowing by means of finely distributing nozzles. The containers were irrigated gently to promote germination and growth and subsequently covered with transparent plastic hoods until the plants had rooted. This cover caused uniform germination of the test plants, unless this has been impaired by the active compounds.
# (§3) Depending on the species, the plants were kept at 10-25° C. or 20-35° C. The test period extended over 2 to 4 weeks. During this time, the plants were tended, and their response to the individual treatments was evaluated.
# (§4) Evaluation was carried out using a scale from 0 to 100. 100 means no emergence of the plants, or complete destruction of at least the aerial moieties, and 0 means no damage, or normal course of growth. A good herbicidal activity is given at values of at least 70 and a very good herbicidal activity is given at values of at least 85.
# (§5) The respective stated components A and B were formulated as a 5% by weight strength or 10% by weight strength emulsion concentrate, or a commercial formulation of component B was used, and, with addition of the amount of solvent system, introduced into the spray liquor used for applying the active compound. In the examples, the solvent used was water.
# (§6) The test period extended over 20 or 21 days. During this time, the plants were tended, and their reactions to the treatments with active compound were monitored.
# (§7) In the examples below, using the method of S. R. Colby (1967) “Calculating synergistic and antagonistic responses of herbicide combinations”, Weeds 15, p. 22ff., the value E, which is expected if the activity of the individual active compounds is only additive, was calculated.
# (§8) What was evaluated was the damage by the chemical compositions using a scale of from 0 to 100%, in comparison to the untreated control plants. 0 means no damage, and 100 means complete destruction of the plants.
# APESV [2] = assay: greenhouse test, pre-emergence treatment; format: in vivo, Apera spica-venti; conditions: for herbicidal activity against APESV: application rate 0.125 kg/ha, comparative test
# Text: as §1, §2, §3, §4, §5, §6, §7, §8
# ECHCG [3] = assay: greenhouse test, pre-emergence treatment; format: in vivo, Echinochloa crus-galli
# Text: as §1, §2, §3, §4, §5, §6, §7, §8
# BROIN [4] = assay: greenhouse test, post-emergence treatment; format: in vivo, Bromus inermis
# Text: as §1
# (§9) For the post-emergence treatment, the test plants were first grown to a height of 3 to 15 cm, depending on the plant habit, and then treated with the active compounds which had been suspended or emulsified in water. For this purpose, the test plants were either sown directly and grown in the same containers, or they were first grown separately as seedlings and transplanted into the test containers a few days prior to treatment.
# (§10) Depending on the species, the plants were kept at 10-25° C. or 20-35° C. […] During this time, the plants were tended, and their response to the individual treatments was evaluated. […]
# as §6, §7
# (§11) What was evaluated was the damage by the chemical compositions using a scale of from 0 to 100%, in comparison to the untreated control plants. […]
# CHEAL = assay: greenhouse test, post-emergence treatment; format: in vivo, Chenopodium album
# Text: as §1, §9, §10, §6, §7, §11
# BROIN [5] = assay: greenhouse test, pre-emergence treatment; format: in vivo, Bromus inermis
# Text: as §1, §2, §3, §5, §6, §7, §8
# POLCO [6] = assay: greenhouse test, pre-emergence treatment; format: in vivo, Fallopia convolvulus
# Text: as §1, §2, §10, §6, §7, §11
# BRAPL = assay: greenhouse test, pre-emergence treatment; format: in vivo, Brachiaria plantaginea
# Text: as §1, §2, §10, §6, §7, §11
# ABUTH = assay: greenhouse test, pre-emergence treatment; format: in vivo, Abutilon theophrasti
# Text: as §1, §2, §10, §6, §7, §11
# VIOAR = assay: greenhouse test, pre-emergence treatment; format: in vivo, Viola arvensis
# Text: as §1, §2, §10, §6, §7, §11
# SETVI = assay: greenhouse test, pre-emergence treatment; format: in vivo, Setaria viridis
# Text: as §1, §2, §10, §6, §7, §11
# LAMPU = assay: greenhouse test, pre-emergence treatment; format: in vivo, Lamium purpureum
# Text: as §1, §2, §10, §6, §7, §11
# ALOMY [7] = assay: greenhouse test, post-emergence treatment; format: in vivo, Alopecurus agrestis
# Text: as §1, §9, §10, §6, §7, §11
# APESV [8] = assay: greenhouse test, post-emergence treatment; format: in vivo, Apera spica-venti
# Text: as §1, §9, §10, §6, §7, §11
# POLCO [9] = assay: greenhouse test, post-emergence treatment; format: in vivo, Fallopia convolvulus
# Text: as §1, §9, §10, §6, §7, §11
# AVEFA = assay: greenhouse test, post-emergence treatment; format: in vivo, Avena fatua; conditions: application rate 1.0 kg/ha, scale from 0 to 100
# Text: as §1, §9, §3, §4
# ECHCG [10] = assay: greenhouse test, post-emergence treatment; format: in vivo, Echinochloa crus-galli; conditions: application rate 1.0 kg/ha, scale from 0 to 100
# Text: as §1, §9, §3, §4
# LOLMU = assay: greenhouse test, post-emergence treatment; format: in vivo, Lolium multiflorum; conditions: application rate 1.0 kg/ha, scale from 0 to 100
# Text: as §1, §9, §3, §4
# [11] = application rate 0.125 kg/ha, comparative test
smiles,measurement,setting,value
"CN1C(=O)C(Cc2ccccc2)N(C)C(=O)/C1=C/c1cccnc1C#N (stereo not drawn) [Ex. 14, reference compound]",herbicidal activity against ALOMY,ALOMY [1],no herbicidal activity
same,herbicidal activity against APESV,APESV [2],90%
same,herbicidal activity against ECHCG,ECHCG [3]; [11],no herbicidal activity
CC(C)CN1C(=O)C(=Cc2cccnc2Br)N(C)C(=O)C1(C)Cc1ccccc1 (racemic) [I-463],herbicidal activity against ECHCG,"ECHCG [3]; application rate 0.5 kg/ha, scale from 0 to 100",good (A good herbicidal activity is given at values of at least 70)
"CN1C(=O)C(C)(Cc2ccccc2)N(C)C(=O)C1=Cc1cccnc1Cl (stereo not drawn) [Example 3, 3-benzyl-6-[1-(2-chloropyridin-3-yl)methylidene]-1,3,4-tri-methylpiperazine-2,5-dione]",melting point,,146 °C
CN1C(=O)C(C)(Cc2ccccc2)N(C)C(=O)/C1=C/c1cccnc1C#N (stereo not drawn) [I-2],Herbicidal activity in % after 20 days against ALOMY,ALOMY [1]; 62.5 g/ha a.s.,65%
same,herbicidal activity against ALOMY,ALOMY [1],75%
same,Herbicidal activity in % after 20 days against APESV,APESV [2]; 125 g/ha a.s.,95%
same,herbicidal activity against APESV,APESV [2],100%
same,Herbicidal activity in % after 20 days against ECHCG,ECHCG [3]; 62.5 g/ha a.s.,40%
same,herbicidal activity against ECHCG,ECHCG [3]; [11],80%
same,Herbicidal activity in % after 20 days against BROIN,BROIN [4]; 125 g/ha a.s.,45%
same,Herbicidal activity in % after 20 days against CHEAL,CHEAL; 125 g/ha a.s.,70%
same,Herbicidal activity in % after 20 days against BROIN,BROIN [5]; 62.5 g/ha a.s.,20%
same,Herbicidal activity in % after 20 days against BROIN,BROIN [5]; 125 g/ha a.s.,80%
same,Herbicidal activity in % after 20 days against POLCO,POLCO [6]; 125 g/ha a.s.,80%
same,Herbicidal activity in % after 20 days against BRAPL,BRAPL; 62.5 g/ha a.s.,65%
same,Herbicidal activity in % after 20 days against ABUTH,ABUTH; 62.5 g/ha a.s.,0%
same,Herbicidal activity in % after 20 days against VIOAR,VIOAR; 62.5 g/ha a.s.,60%
same,Herbicidal activity in % after 20 days against SETVI,SETVI; 62.5 g/ha a.s.,90%
same,Herbicidal activity in % after 20 days against LAMPU,LAMPU; 62.5 g/ha a.s.,40%
same,Herbicidal activity in % after 20 days against ALOMY,ALOMY [7]; 62.5 g/ha a.s.,45%
same,Herbicidal activity in % after 20 days against APESV,APESV [8]; 62.5 g/ha a.s.,40%
same,Herbicidal activity in % after 20 days against POLCO,POLCO [9]; 62.5 g/ha a.s.,40%
same,melting point,,163 °C
CN1C(=O)C(C)(Cc2ccccc2)N(C)C(=O)C1=Cc1cccnc1Br (racemic) [I-1],herbicidal activity against AVEFA,AVEFA,very good (a very good herbicidal activity is given at values of at least 85)
same,herbicidal activity against ECHCG,ECHCG [10],very good (a very good herbicidal activity is given at values of at least 85)
same,herbicidal activity against LOLMU,LOLMU,very good (a very good herbicidal activity is given at values of at least 85)
"CN1C(=O)C(C)(Cc2ccccc2)N(C)C(=O)C1=Cc1cccnc1C#N (stereo not drawn) [Example 4, 3-(5-benzyl-1,4,5-trimethyl-3,6-dioxopiperazin-2-ylidene-methyl)pyridine-2-carbonitrile]",melting point,,163 °C
"Cn1nc(C(F)(F)F)c(CS(=O)(=O)C2=NOC(C)(C)C2)c1OC(F)F [pyroxasulfone, reference compound]",Herbicidal activity in % after 20 days against ALOMY,ALOMY [1]; 12.5 g/ha a.s.,90%
same,Herbicidal activity in % after 20 days against BROIN,BROIN [5]; 12.5 g/ha a.s.,65%
same,Herbicidal activity in % after 20 days against SETVI,SETVI; 12.5 g/ha a.s.,90%
same,Herbicidal activity in % after 20 days against LAMPU,LAMPU; 12.5 g/ha a.s.,80%
same,Herbicidal activity in % after 20 days against ALOMY,ALOMY [7]; 12.5 g/ha a.s.,85%
same,Herbicidal activity in % after 20 days against APESV,APESV [8]; 12.5 g/ha a.s.,80%
same,Herbicidal activity in % after 20 days against POLCO,POLCO [9]; 12.5 g/ha a.s.,40%
"CC(C)N(C)S(=O)(=O)NC(=O)c1cc(-n2c(=O)cc(C(F)(F)F)n(C)c2=O)c(F)cc1Cl [saflufenacil, reference compound]",Herbicidal activity in % after 20 days against ECHCG,ECHCG [3]; 6.25 g/ha a.s.,0%
same,Herbicidal activity in % after 20 days against BRAPL,BRAPL; 6.25 g/ha a.s.,35%
same,Herbicidal activity in % after 20 days against ABUTH,ABUTH; 6.25 g/ha a.s.,90%
same,Herbicidal activity in % after 20 days against VIOAR,VIOAR; 6.25 g/ha a.s.,80%
"CCC(CC)Nc1c([N+](=O)[O-])cc(C)c(C)c1[N+](=O)[O-] [pendimethalin, reference compound]",Herbicidal activity in % after 20 days against APESV,APESV [2]; 250 g/ha a.s.,95%
same,Herbicidal activity in % after 20 days against BROIN,BROIN [4]; 250 g/ha a.s.,0%
same,Herbicidal activity in % after 20 days against CHEAL,CHEAL; 250 g/ha a.s.,75%
same,Herbicidal activity in % after 20 days against BROIN,BROIN [5]; 250 g/ha a.s.,40%
same,Herbicidal activity in % after 20 days against POLCO,POLCO [6]; 250 g/ha a.s.,70%
